These results are taken from patent US6335367B1 (priority 1999, dated 2002).

Holding throughout (type): in vivo
The subject of test [1] is Pucciitia recoitdita (f. sp. tritici). The note with it: 300 grams per hectare; protective spray, inoculated one day after treatment; evaluated after 12 days.
Test [2] has as its system two-spotted spider mite Teranychus uricate. Nature of the test: Insecticidal leaf disk test, two-spotted spider mite (MTA). As to conditions: 300 grams/hectare; leaf disk infested prior to spraying; visual inspection 24-48 hours after spraying. The protocol:
(§1) Numerous compounds of this invention were tested for insecticidal activity in vivo against the insects described below. The following test method was used to evaluate compounds of the present invention for insecticidal activity. The compound to be evaluated was dissolved in an appropriate solvent, usually a mix of acetone, methanol and water, and sprayed over three excised leaf disks using a flat fan nozzle. After spraying, the leaf disks were allowed to dry. Two disks were infested with the leaf chewing insects (southern armyworm and Mexican bean beetle) and the third leaf disk was already infested with the two-spotted spider mite prior to spraying. The tested insect species were:
MTA two-spotted spider mite Teranychus uricate
(§2) Observations as percent control were made by visual inspection 24-48 hours after spraying.

Another test relates to Plasiitopara viticola. Nature of the test: Grape Downy Mildew (GDM) protective test on grape plants. As to conditions: 300 grams/hectare; protective spray; seven days after inoculation. The protocol: Numerous compounds of this invention were tested for fungicidal activity in vivo against the diseases described below. The compounds were dissolved a 1:1 mixture of acetone and methanol or N, N-dimethylformamide and diluted with a 2:1:1 mixture of water, acetone, and methanol (by volume) or water, respectively, to achieve the appropriate concentration. The solution was sprayed onto the plants, and allowed to dry (two hours). Then the plants were inoculated with fungal spores. Each test utilized control plants which were sprayed with the appropriate solvent mixture and inoculated. For these protective tests, the plants were inoculated one day after treating the plants with the fungicide compound. The remainder of the technique of each of the tests is given below along with the results for various compounds described herein by the Compound # against the various fungi at a dose of 300 grams per hectare. The results are percent disease control are compared to the untreated check wherein one hundred was rated as complete disease control and zero as no disease control.
Plasiitopara viticola was maintained on leaves of grape plants, cultivar. Delaware, in a controlled temperature chamber at 20° C. in humid air with moderate light intensity for 7 to 8 days. A water suspension of the spores from infested leaves was obtained and the spore concentration was adjusted to about 3×10^5 per ml of water. Delaware grape plants were inoculated by spraying the underside of leaves with a DeVilbiss atomizer until small drops were observed on the leaves. The inoculated plants were incubated in a mist chamber for 24 hours at 20° C. The plants were then removed to a controlled environmental room at 20° C. Disease control values were recorded as percent control seven days after inoculation.

The subject of test [3] is Mexican bean beetle Epilachiba varivestis. The test is described as follows: Insecticidal leaf disk test, Mexican bean beetle (BB). The note with it: 300 grams/hectare; sprayed leaf disk; visual inspection 24-48 hours after spraying. The protocol: as §1
BB Mexican bean beetle Epilachiba varivestis
as §2

Structures are written as SMILES.

As for `CNC(=O)C(=NOC)c1ccccc1COc1cccc(C2CC2C(C)=NOC)c1` (single isomer, unassigned) [Compound 3.18A], in test [1], the “percent disease control, wheat leaf rust” value is on record as 100%.
With `COC=C(C(=O)OC)c1ccccc1COc1cccc(C2CC2C(=NOC)c2ccc(Cl)cc2)c1` (stereo not shown) [Compound 1.04], in test [2], the “percent control, two-spotted spider mite” value was 100%. For the same molecule, the “percent disease control, wheat leaf rust” value in test [1] amounted to 100%.
Regarding `CCCCCCC(=NOC)C1CC1c1cccc(OCc2ccccc2/C(=C\OC)C(=O)OC)c1` (stereo not drawn) [Compound 1.23, Methyl (E)-3-methoxy-2-trans-[2-(3-(2-(methoximinohept-1-yl)cyclopropyl)-phenoxymethyl)phenyl]-2-propenoate], the “percent disease control, grape downy mildew” value with Plasiitopara viticola is reported as 100%. Further, the “percent control, Mexican bean beetle” value in test [3] is on record as 100%. Moreover, the “percent control, two-spotted spider mite” value in test [2] amounted to 100%.
On to `CCC(C)C(NNc1ccccc1)=C1CC1c1cccc(OCc2ccccc2/C(=C\OC)C(=O)OC)c1` (stereo not drawn) [Compound 4.17, Methyl (E)-3-methoxy-2-trans-[2-(3-(2-(2-ethyl-1-(2-phenylhydrazino)propylidene)cyclopropyl)phenoxymethyl)phenyl]-2-propenoate], for which the “percent disease control, wheat leaf rust” value in test [1] is 100%.
For `CCON=C(C1CC1)C1CC1c1cccc(OCc2ccccc2C(=COC)C(=O)OC)c1` (single isomer, unassigned) [Compound 1.108A], the “percent disease control, grape downy mildew” value in the test with Plasiitopara viticola is recorded as 100%. In test [3], the “percent control, Mexican bean beetle” value was 100%. The “percent control, two-spotted spider mite” value in test [2] is given as 100%. Further, the “percent disease control, wheat leaf rust” value in test [1] was found to be 100%.
On to `CNC(=O)C(=NOC)c1ccccc1COc1cccc(C2CC2C(C)=NOC)c1` (single isomer, unassigned) [Compound 3.18B], for which the “percent disease control, grape downy mildew” value in the test on Plasiitopara viticola is recorded as 100%. For the same molecule, the “percent disease control, wheat leaf rust” value in test [1] worked out at 100%.
Take `COC=C(C(=O)OC)c1ccccc1COc1cccc(C2CC2C(=NOC(C)(C)C)C2CC2)c1` (stereo not shown) [Compound 1.110]: the “percent control, Mexican bean beetle” value in test [3] was determined as 100%. In addition, the “percent control, two-spotted spider mite” value in test [2] amounted to 100%.
For the molecule `COC=C(C(=O)OC)c1ccccc1COc1cccc(C2CC2C(=NOCc2ccccc2)C2CC2)c1` (stereo not shown) [Compound 1.115], the “percent disease control, grape downy mildew” value in the test with Plasiitopara viticola is 100%. In test [3], the “percent control, Mexican bean beetle” value worked out at 100%. For the same molecule, in test [2], the “percent control, two-spotted spider mite” value is listed as 100%.
In the case of `COC=C(C(=O)OC)c1ccccc1COc1cccc(C2CC2C(=NOC)C2CC=C(C)CC2)c1` (stereo not shown) [Compound 1.33], the “percent control, Mexican bean beetle” value in test [3] came to 100%. The “percent control, two-spotted spider mite” value in test [2] stood at 100%.
As for `COC=C(C(=O)OC)c1ccccc1COc1cccc(C2CC2C(=NNC(=O)c2ccccc2)C2CC2)c1` (stereo not drawn) [Compound 4.98, Methyl (E)-3-methoxy-2-trans-[2-(3-(2-(1-(N-benzoylhydrazinomethylidine)cycloprop-1-yl)cyclopropyl)phenoxymethyl)phenyl]-2-propenoate], the “percent disease control, wheat leaf rust” value in test [1] amounted to 100%.
For the molecule `COC=C(C(=O)OC)c1ccccc1COc1cccc(C2CC2C(C)=NOC)c1` (single isomer, unassigned) [Compound 1.18A], the “percent disease control, grape downy mildew” value in the test with Plasiitopara viticola worked out at 100%. The “percent control, Mexican bean beetle” value in test [3] was determined as 100%. Also, the “percent control, two-spotted spider mite” value in test [2] amounted to 100%. In addition, in test [1], the “percent disease control, wheat leaf rust” value was found to be 100%.
Regarding `CO/C=C(/C(=O)OC)c1ccccc1COc1cccc(C2CC2C(=NOC)C2CC2)c1` (stereo not drawn) [Compound 1.34, Methyl (E)-3-methoxy-2-trans-[2-(3-(2-(methoximinocycloprop-1-yl)cyclopropyl)phenoxymethyl)phenyl]-2-propenoate], the “percent disease control, grape downy mildew” value in the test on Plasiitopara viticola is recorded as 100%. Moreover, the “percent control, Mexican bean beetle” value in test [3] is 100%. Further, in test [2], the “percent control, two-spotted spider mite” value came to 100%. For the same molecule, the “percent disease control, wheat leaf rust” value in test [1] was 100%.
Consider `CCON=C(C1CC1)C1CC1c1cccc(OCc2ccccc2C(=COC)C(=O)OC)c1` (single isomer, unassigned) [Compound 1.108B], for which the “percent disease control, grape downy mildew” value in the test with Plasiitopara viticola is reported as 100%. For the same molecule, the “percent disease control, wheat leaf rust” value in test [1] is 100%.
Take `CNC(=O)C(=NOC)c1ccccc1COc1cccc(C2CC2C(=NOC)C2CC2)c1` (stereo not shown) [Compound 3.34]: in the test on Plasiitopara viticola, the “percent disease control, grape downy mildew” value turned out to be 100%. The “percent disease control, wheat leaf rust” value in test [1] stood at 100%.
With `COC=C(C(=O)OC)c1ccccc1COc1cccc(C2CC2C(CC(C)C)=NOC)c1` (stereo not shown) [Compound 1.24], the “percent disease control, grape downy mildew” value with Plasiitopara viticola came to 100%. In addition, in test [3], the “percent control, Mexican bean beetle” value is 100%. In addition, the “percent control, two-spotted spider mite” value in test [2] was determined as 100%.
Regarding `COC=C(C(=O)OC)c1ccccc1COc1cccc(C2CC2C(C)=NOC)c1` (single isomer, unassigned) [Compound 1.18B], the “percent disease control, grape downy mildew” value with Plasiitopara viticola turned out to be 100%. Further, the “percent control, Mexican bean beetle” value in test [3] is listed as 100%. In test [2], the “percent control, two-spotted spider mite” value is on record as 100%. Further, the “percent disease control, wheat leaf rust” value in test [1] stood at 100%.
